pIC50: −log10 of the molar value. Values after ≈ are worked out from the molar mass of the structure shown. One block for each compound: values may come before it.
Legend:
Staphylococcus aureus [1] = experiment: Antibacterial activity against Staphylococcus aureus; assay type: functional
HUVEC = experiment: Cytotoxicity against HUVEC by MTT assay; assay type: functional, cell-based; conditions: Homo sapiens
Nannizzia gypsea [2] = experiment: Antifungal activity against Microsporum gypseum; assay type: functional
MCF7 = experiment: Cytotoxicity against human MCF7 cells after 72 hrs by MTT assay; assay type: functional, cell-based; conditions: MCF7, 72 h
T47D = experiment: Cytotoxicity against human T47D cells after 72 hrs by MTT assay; assay type: functional, cell-based
MDA-MB-231 [3] = experiment: Cytotoxicity against human MDA-MB-231 cells after 72 hrs by MTT assay; assay type: functional, cell-based; conditions: MDA-MB-231, 72 h
Saccharomyces cerevisiae [4] = experiment: Antifungal activity against Saccharomyces cerevisiae; assay type: functional
Acetylcholinesterase = Acetylcholinesterase (Homo sapiens, UniProt P22303); experiment: Inhibition of AChE (unknown origin)
Candida albicans [5] = experiment: Antifungal activity against Candida albicans; assay type: functional
Candida albicans [6] = experiment: Ratio of fluconazole MIC to compound MIC for Candida albicans; assay type: functional
Saccharomyces cerevisiae [7] = experiment: Ratio of fluconazole MIC to compound MIC for Saccharomyces cerevisiae; assay type: functional
Mycolicibacterium phlei = experiment: Antimycobacterial activity against Mycobacterium phlei; assay type: functional
Mycolicibacterium aurum = experiment: Antimycobacterial activity against Mycobacterium aurum; assay type: functional
[8] = tested on: Mycolicibacterium fortuitum; experiment: Antimycobacterial activity against Mycobacterium fortuitum; assay type: functional
[9] = tested on: Mycolicibacterium smegmatis; experiment: Antimycobacterial activity against Mycobacterium smegmatis; assay type: functional
Staphylococcus aureus [10] = experiment: Antibacterial activity against methicillin-resistant Staphylococcus aureus 252; assay type: functional
Aspergillus niger [11] = experiment: Antifungal activity against Aspergillus niger; assay type: functional
Aspergillus niger [12] = experiment: Ratio of fluconazole MIC to compound MIC for Aspergillus niger; assay type: functional
Nannizzia gypsea [13] = experiment: Ratio of fluconazole MIC to compound MIC for Microsporum gypseum; assay type: functional
K562 = experiment: Cytotoxicity against human K562 cells after 24 hrs by MTT assay; assay type: functional, cell-based; conditions: K562, 24 h
MDA-MB-231 [14] = experiment: Cytotoxicity against human MDA-MB-231 cells after 24 hrs by MTT assay; assay type: functional, cell-based; conditions: MDA-MB-231, 24 h
SK-N-MC [15] = experiment: Cytotoxicity against human SK-N-MC cells after 24 hrs by MTT assay; assay type: functional, cell-based
MDA-MB-231 [16] = experiment: Cytotoxicity against human MDA-MB-231 cells by MTT assay; assay type: functional, cell-based
KB = experiment: Cytotoxicity against human KB cells by MTT assay; assay type: functional, cell-based
SK-N-MC [17] = experiment: Cytotoxicity against human SK-N-MC cells by MTT assay; assay type: functional, cell-based
Candida albicans [18] = experiment: Antifungal activity against Candida albicans PTCC 5027 after 24 to 48 hrs by agar dilution method; assay type: functional
Saccharomyces cerevisiae [19] = experiment: Antifungal activity against Saccharomyces cerevisiae PTCC 5177 after 24 to 48 hrs by agar dilution method; assay type: functional
Aspergillus niger [20] = experiment: Antifungal activity against Aspergillus niger PTCC 5012 after 72 hrs by agar dilution method; assay type: functional; conditions: PTCC 5012, 72 h
Nannizzia gypsea [21] = experiment: Antifungal activity against Microsporum gypseum PTCC 5070 after 168 hrs by agar dilution method; assay type: functional; conditions: PTCC 5070, 168 h

Sequence of Acetylcholinesterase (P22303 whole entry): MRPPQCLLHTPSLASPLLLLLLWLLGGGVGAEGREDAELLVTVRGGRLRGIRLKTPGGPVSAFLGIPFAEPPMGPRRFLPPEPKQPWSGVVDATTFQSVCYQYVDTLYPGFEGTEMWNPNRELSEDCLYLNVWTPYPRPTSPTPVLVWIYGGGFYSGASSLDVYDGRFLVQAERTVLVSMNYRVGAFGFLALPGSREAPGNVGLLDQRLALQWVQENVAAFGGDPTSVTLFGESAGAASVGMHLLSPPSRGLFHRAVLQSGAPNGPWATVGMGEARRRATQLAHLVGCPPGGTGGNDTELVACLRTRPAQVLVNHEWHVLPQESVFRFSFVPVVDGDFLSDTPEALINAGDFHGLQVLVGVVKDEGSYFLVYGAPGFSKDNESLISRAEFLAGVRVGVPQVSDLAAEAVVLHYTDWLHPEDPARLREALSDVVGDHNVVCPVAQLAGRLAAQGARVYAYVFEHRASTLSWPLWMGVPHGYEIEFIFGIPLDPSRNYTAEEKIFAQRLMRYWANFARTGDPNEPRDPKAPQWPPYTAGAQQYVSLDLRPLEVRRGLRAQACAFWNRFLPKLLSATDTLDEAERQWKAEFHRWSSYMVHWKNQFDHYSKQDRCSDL

Compound: COc1ccccc1/C=C1\COc2ccccc2C1=O
pIC50 (HUVEC): 4.72

Compound: O=C1/C(=C/c2ccccc2)COc2cc3c(cc21)OCO3
IC50 (MCF7): ≤ 9.3 µg/mL | IC50 (T47D): ≤ 9.3 µg/mL | IC50 (MDA-MB-231 [3]): ≤ 9.3 µg/mL

Compound: Nc1oc2ccccc2c(=O)c1/C=C1\COc2ccccc2C1=O
pIC50 (Acetylcholinesterase): 6.57

Compound: C=C(C)C(C)c1cc(C2CC(=O)c3c(O)cc(O)cc3O2)c(OC)cc1O (stereo not drawn)
MIC (Staphylococcus aureus [10]): 16 µg/mL (≈ 43.2 µM)

Compound: C=C(C)C(C)c1cc(C2CC(=O)c3c(O)cc(O)cc3O2)cc(OC)c1O (stereo not drawn)
MIC (Staphylococcus aureus [10]): 16 µg/mL (≈ 43.2 µM)

Compound: COc1cc(/C=C2\COc3cc(O)ccc3C2=O)cc(Br)c1O
IC50 (K562): ≤ 3.86 µg/mL | IC50 (MDA-MB-231 [14]): ≤ 3.86 µg/mL | IC50 (SK-N-MC [15]): ≤ 3.86 µg/mL

Compound: COc1ccc2c(c1)OC/C(=C\c1cc(Cl)c(OC)c(OC)c1)C2=O
IC50 (MDA-MB-231 [16]): 7.56 µg/mL (≈ 21 µM) | IC50 (KB): 7.56 µg/mL (≈ 21 µM) | IC50 (SK-N-MC [17]): 7.56 µg/mL (≈ 21 µM)

Continued, in another order:

MIC (Staphylococcus aureus [1]): 16 µg/mL (≈ 37.7 µM)
Compound: CC(C)=CCC/C(C)=C/Cc1c(C2CC(=O)c3c(O)cc(O)cc3O2)ccc(O)c1O (stereo not drawn)

MIC (Nannizzia gypsea [2]): 1 µg/mL
Compound: C[C@@H]1Oc2ccccc2/C(=N\OCc2ccc(F)cc2)[C@H]1n1ccnc1.O=[N+]([O-])O

MIC (Staphylococcus aureus [1]): 4 µg/mL (≈ 8.54 µM)
Compound: COc1cc(C2CC(=O)c3c(cc(O)c(C/C=C(\C)CCC=C(C)C)c3O)O2)cc(OC)c1O (stereo not drawn)

MIC (Saccharomyces cerevisiae [4]): 4 µg/mL (≈ 9.44 µM)
Compound: Clc1ccc(CO/N=C2\c3ccc(Cl)cc3OCC2n2cncn2)c(Cl)c1 (stereo not drawn)

MIC (Nannizzia gypsea [2]): 2 µg/mL
Compound: O=[N+]([O-])O.c1ccc(CO/N=C2/c3ccccc3OCC2n2ccnc2)cc1 (stereo not drawn)

MIC (Candida albicans [5]): 0.25 µg/mL | MIC (Nannizzia gypsea [2]): 1 µg/mL | MIC (Saccharomyces cerevisiae [4]): 0.5 µg/mL
Compound: C[C@@H]1Oc2cc(Cl)ccc2/C(=N\OCc2ccccc2)[C@H]1n1ccnc1.O=[N+]([O-])O
Ratio (Candida albicans [6]): 32 | Ratio (Saccharomyces cerevisiae [7]): 32

MIC (Mycolicibacterium phlei): 16 µg/mL (≈ 51.2 µM) | MIC (Mycolicibacterium aurum): 32 µg/mL (≈ 102 µM) | MIC [8]: 128 µg/mL (≈ 410 µM) | MIC [9]: 256 µg/mL (≈ 820 µM)
Compound: COc1ccc(CC2COc3c(ccc4c3OCO4)C2=O)cc1 (stereo not drawn)

MIC (Aspergillus niger [11]): 1 µg/mL | MIC (Nannizzia gypsea [2]): 1 µg/mL
Compound: Clc1ccc(CO/N=C2\c3ccccc3OCC2n2cncn2)cc1Cl.O=[N+]([O-])O (stereo not drawn)
Ratio (Aspergillus niger [12]): 16 | Ratio (Nannizzia gypsea [13]): 16

MIC (Candida albicans [5]): ≤ 1 µg/mL | MIC (Aspergillus niger [11]): ≤ 1 µg/mL
Compound: Clc1ccc(CO/N=C2\c3ccccc3OCC2n2ccnc2)cc1Cl.O=[N+]([O-])O (stereo not drawn)

MIC (Nannizzia gypsea [2]): 2 µg/mL
Compound: O=[N+]([O-])O.c1ccc(CO/N=C2\c3ccccc3OCC2n2ccnc2)cc1 (stereo not drawn)

MIC (Candida albicans [18]): 8 µg/mL (≈ 25.1 µM) | MIC (Saccharomyces cerevisiae [19]): 8 µg/mL (≈ 25.1 µM) | MIC (Aspergillus niger [20]): 8 µg/mL (≈ 25.1 µM) | MIC (Nannizzia gypsea [21]): 8 µg/mL (≈ 25.1 µM)
Compound: CC1Oc2ccccc2/C(=N/Nc2ccccc2)C1n1ccnc1 (stereo not drawn)

Reference: ChEMBL document CHEMBL3414547, “Recent advances of chroman-4-one derivatives: synthetic approaches and bioactivities” (Eur J Med Chem, 2015)
